Reference: PubChem BioAssay AID1259407 (Chemical Carcinogenesis Research Information System (CCRIS), 2018)
The source made the active and inactive calls. The rule behind the calls is not given here.

Test system: CCRIS mutagenicity, Ames/micronucleus/aberration tests
Experiment: CCRIS mutagenicity studies
[1] = Test System: AMES SALMONELLA TYPHIMURIUM, Strain/Indicator: TA98, Metabolic Activation: NONE, Method: STANDARD PLATE
[2] = Test System: AMES SALMONELLA TYPHIMURIUM, Strain/Indicator: TA100, Metabolic Activation: NONE, Method: STANDARD PLATE
[3] = Test System: AMES SALMONELLA TYPHIMURIUM, Strain/Indicator: TA98, Metabolic Activation: RAT, LIVER, S-9, AROCLOR 1254, Method: STANDARD PLATE

Measured: mutagenic call

CC(C)=CCOc1c2occc2cc2ccc(=O)oc12
active: Test System: AMES SALMONELLA TYPHIMURIUM, Strain/Indicator: TA92, Metabolic Activation: NONE, Method: SPOT TEST active; positive | Test System: AMES SALMONELLA TYPHIMURIUM, Strain/Indicator: TA92, Metabolic Activation: RAT, LIVER, S-9, AROCLOR 1254, Method: SPOT TEST active; positive | Test System: AMES SALMONELLA TYPHIMURIUM, Strain/Indicator: TA97, Metabolic Activation: NONE, Method: SPOT TEST active; positive | Test System: AMES SALMONELLA TYPHIMURIUM, Strain/Indicator: TA97, Metabolic Activation: RAT, LIVER, S-9, AROCLOR 1254, Method: SPOT TEST active; positive | Test System: AMES SALMONELLA TYPHIMURIUM, Strain/Indicator: TA98, Metabolic Activation: NONE, Method: SPOT TEST active; positive | Test System: AMES SALMONELLA TYPHIMURIUM, Strain/Indicator: TA98, Metabolic Activation: RAT, LIVER, S-9, AROCLOR 1254, Method: SPOT TEST active; positive | Test System: AMES SALMONELLA TYPHIMURIUM, Strain/Indicator: TA100, Metabolic Activation: NONE, Method: SPOT TEST active; positive | [2] active; positive | Test System: AMES SALMONELLA TYPHIMURIUM, Strain/Indicator: TA100, Metabolic Activation: RAT, LIVER, S-9, AROCLOR 1254, Method: SPOT TEST active; positive
inactive: Test System: AMES SALMONELLA TYPHIMURIUM, Strain/Indicator: TA94, Metabolic Activation: NONE, Method: SPOT TEST inactive; negative | Test System: AMES SALMONELLA TYPHIMURIUM, Strain/Indicator: TA94, Metabolic Activation: RAT, LIVER, S-9, AROCLOR 1254, Method: SPOT TEST inactive; negative | [1] inactive; negative | Test System: AMES SALMONELLA TYPHIMURIUM, Strain/Indicator: TA98, Metabolic Activation: RAT, LIVER, S-9, PHENOBARBITAL, Method: STANDARD PLATE inactive; negative | Test System: AMES SALMONELLA TYPHIMURIUM, Strain/Indicator: TA102, Metabolic Activation: NONE, Method: SPOT TEST inactive; negative | Test System: AMES SALMONELLA TYPHIMURIUM, Strain/Indicator: TA102, Metabolic Activation: RAT, LIVER, S-9, AROCLOR 1254, Method: SPOT TEST inactive; negative

OC1c2cccnc2C2OC2C1O (stereo unspecified)
inactive: [2] inactive; negative | Test System: AMES SALMONELLA TYPHIMURIUM, Strain/Indicator: TA100, Metabolic Activation: RAT, LIVER, S-9, AROCLOR 1254 (10 OR 20%), Method: STANDARD PLATE inactive; negative

CC(C)C(C)(C)C(C)(C)C(C)(C)S
inactive: Test System: AMES SALMONELLA TYPHIMURIUM, Strain/Indicator: TA97, Metabolic Activation: HAMSTER, LIVER, S-9, AROCLOR 1254 (10%), Method: PREINCUBATION inactive; negative | Test System: AMES SALMONELLA TYPHIMURIUM, Strain/Indicator: TA97, Metabolic Activation: HAMSTER, LIVER, S-9, AROCLOR 1254 (10 OR 30%), Method: PREINCUBATION inactive; negative | Test System: AMES SALMONELLA TYPHIMURIUM, Strain/Indicator: TA97, Metabolic Activation: HAMSTER, LIVER, S-9, AROCLOR 1254 (30%), Method: PREINCUBATION inactive; negative | Test System: AMES SALMONELLA TYPHIMURIUM, Strain/Indicator: TA97, Metabolic Activation: NONE, Method: PREINCUBATION inactive; negative | Test System: AMES SALMONELLA TYPHIMURIUM, Strain/Indicator: TA97, Metabolic Activation: RAT, LIVER, S-9, AROCLOR 1254 (10 OR 30%), Method: PREINCUBATION inactive; negative | Test System: AMES SALMONELLA TYPHIMURIUM, Strain/Indicator: TA98, Metabolic Activation: HAMSTER, LIVER, S-9, AROCLOR 1254 (10 OR 30%), Method: PREINCUBATION inactive; negative | Test System: AMES SALMONELLA TYPHIMURIUM, Strain/Indicator: TA98, Metabolic Activation: NONE, Method: PREINCUBATION inactive; negative | Test System: AMES SALMONELLA TYPHIMURIUM, Strain/Indicator: TA98, Metabolic Activation: RAT, LIVER, S-9, AROCLOR 1254 (10 OR 30%), Method: PREINCUBATION inactive; negative | Test System: AMES SALMONELLA TYPHIMURIUM, Strain/Indicator: TA100, Metabolic Activation: HAMSTER, LIVER, S-9, AROCLOR 1254 (10 OR 30%), Method: PREINCUBATION inactive; negative | Test System: AMES SALMONELLA TYPHIMURIUM, Strain/Indicator: TA100, Metabolic Activation: NONE, Method: PREINCUBATION inactive; negative | Test System: AMES SALMONELLA TYPHIMURIUM, Strain/Indicator: TA100, Metabolic Activation: RAT, LIVER, S-9, AROCLOR 1254 (10 OR 30%), Method: PREINCUBATION inactive; negative | Test System: AMES SALMONELLA TYPHIMURIUM, Strain/Indicator: TA1535, Metabolic Activation: HAMSTER, LIVER, S-9, AROCLOR 1254 (10 OR 30%), Method: PREINCUBATION inactive; negative | Test System: AMES SALMONELLA TYPHIMURIUM, Strain/Indicator: TA1535, Metabolic Activation: NONE, Method: PREINCUBATION inactive; negative | Test System: AMES SALMONELLA TYPHIMURIUM, Strain/Indicator: TA1535, Metabolic Activation: RAT, LIVER, S-9, AROCLOR 1254 (10 OR 30%), Method: PREINCUBATION inactive; negative

O=C(/C=C/c1ccc([N+](=O)[O-])o1)N/N=C/c1ccc([N+](=O)[O-])o1
active: Test System: AMES SALMONELLA TYPHIMURIUM, Strain/Indicator: TA98(1,8-DNP6), Metabolic Activation: NONE, Method: STANDARD PLATE active; positive | Test System: AMES SALMONELLA TYPHIMURIUM, Strain/Indicator: TA98(1,8-DNP6), Metabolic Activation: RAT, LIVER, S-9, 3-METHYLCHOLANTHRENE, Method: STANDARD PLATE active; positive | Test System: AMES SALMONELLA TYPHIMURIUM, Strain/Indicator: TA98(NR), Metabolic Activation: NONE, Method: STANDARD PLATE active; positive | Test System: AMES SALMONELLA TYPHIMURIUM, Strain/Indicator: TA98(NR), Metabolic Activation: RAT, LIVER, S-9, 3-METHYLCHOLANTHRENE, Method: STANDARD PLATE active; positive | [1] active; positive | Test System: AMES SALMONELLA TYPHIMURIUM, Strain/Indicator: TA98, Metabolic Activation: RAT, LIVER, S-9, 3-METHYLCHOLANTHRENE, Method: STANDARD PLATE active; positive

C[C@@H]1Cc2ccc(C(=O)N[C@@H](Cc3ccccc3)C(=O)O)c(O)c2C(=O)O1
inactive: End Point: IN VIVO CHROMOSOMAL ABERRATIONS, Test System: SPLENOCYTES, Species: RAT, Strain/Sex: FISCHER 344/MALE, Route: ORAL (GAVAGE) inactive; negative | Test System: AMES SALMONELLA TYPHIMURIUM, Strain/Indicator: TA102, Metabolic Activation: NONE, Method: STANDARD PLATE inactive; negative | Test System: AMES SALMONELLA TYPHIMURIUM, Strain/Indicator: TA102, Metabolic Activation: RAT, LIVER, S-9, AROCLOR 1254, Method: STANDARD PLATE inactive; negative

OC1CC=Cc2c1cc1ccc3cccc4ccc2c1c34 (stereo unspecified)
active: [3] active; positive

O=C1OC(O)C(CBr)=C1Br (stereo unspecified)
active: [2] active; positive

Cc1c2ccccc2c(CCl)c2ccccc12
active: Test System: AMES SALMONELLA TYPHIMURIUM, Strain/Indicator: TA1537, Metabolic Activation: NONE, Method: STANDARD PLATE active; positive

CCOC(=O)C(=NNc1ccc(-c2ccc(NN=C(C(=O)OCC)C(=O)OCC)c(Cl)c2)cc1Cl)C(=O)OCC
inactive: Test System: AMES SALMONELLA TYPHIMURIUM, Strain/Indicator: TA98, Metabolic Activation: HAMSTER, LIVER, S-9, Method: PREINCUBATION (PRIVAL METHOD) inactive; negative | Test System: AMES SALMONELLA TYPHIMURIUM, Strain/Indicator: TA98, Metabolic Activation: NONE, Method: PREINCUBATION (PRIVAL METHOD) inactive; negative

N=c1c2ncn(C(c3ccccc3)c3ccccc3)c2ncn1O
active: [3] active; positive
inactive: Test System: AMES SALMONELLA TYPHIMURIUM, Strain/Indicator: TA97, Metabolic Activation: NONE, Method: STANDARD PLATE inactive; negative | Test System: AMES SALMONELLA TYPHIMURIUM, Strain/Indicator: TA97, Metabolic Activation: RAT, LIVER, S-9, AROCLOR 1254, Method: STANDARD PLATE inactive; negative | [1] inactive; negative | [2] inactive; negative | Test System: AMES SALMONELLA TYPHIMURIUM, Strain/Indicator: TA100, Metabolic Activation: RAT, LIVER, S-9, AROCLOR 1254, Method: STANDARD PLATE inactive; negative
